Test results as given in patent US7410975B2, “Small molecule toll-like receptor (TLR) antagonists” (Coley Pharmaceutical Group, Inc., priority 2003, dated 2008).

Target: T1, human TLR7 (hTLR7) (Homo sapiens, UniProt Q9NYK1)
T1 construct: expressed in transfected cells
T1 sequence (Q9NYK1 27-1049): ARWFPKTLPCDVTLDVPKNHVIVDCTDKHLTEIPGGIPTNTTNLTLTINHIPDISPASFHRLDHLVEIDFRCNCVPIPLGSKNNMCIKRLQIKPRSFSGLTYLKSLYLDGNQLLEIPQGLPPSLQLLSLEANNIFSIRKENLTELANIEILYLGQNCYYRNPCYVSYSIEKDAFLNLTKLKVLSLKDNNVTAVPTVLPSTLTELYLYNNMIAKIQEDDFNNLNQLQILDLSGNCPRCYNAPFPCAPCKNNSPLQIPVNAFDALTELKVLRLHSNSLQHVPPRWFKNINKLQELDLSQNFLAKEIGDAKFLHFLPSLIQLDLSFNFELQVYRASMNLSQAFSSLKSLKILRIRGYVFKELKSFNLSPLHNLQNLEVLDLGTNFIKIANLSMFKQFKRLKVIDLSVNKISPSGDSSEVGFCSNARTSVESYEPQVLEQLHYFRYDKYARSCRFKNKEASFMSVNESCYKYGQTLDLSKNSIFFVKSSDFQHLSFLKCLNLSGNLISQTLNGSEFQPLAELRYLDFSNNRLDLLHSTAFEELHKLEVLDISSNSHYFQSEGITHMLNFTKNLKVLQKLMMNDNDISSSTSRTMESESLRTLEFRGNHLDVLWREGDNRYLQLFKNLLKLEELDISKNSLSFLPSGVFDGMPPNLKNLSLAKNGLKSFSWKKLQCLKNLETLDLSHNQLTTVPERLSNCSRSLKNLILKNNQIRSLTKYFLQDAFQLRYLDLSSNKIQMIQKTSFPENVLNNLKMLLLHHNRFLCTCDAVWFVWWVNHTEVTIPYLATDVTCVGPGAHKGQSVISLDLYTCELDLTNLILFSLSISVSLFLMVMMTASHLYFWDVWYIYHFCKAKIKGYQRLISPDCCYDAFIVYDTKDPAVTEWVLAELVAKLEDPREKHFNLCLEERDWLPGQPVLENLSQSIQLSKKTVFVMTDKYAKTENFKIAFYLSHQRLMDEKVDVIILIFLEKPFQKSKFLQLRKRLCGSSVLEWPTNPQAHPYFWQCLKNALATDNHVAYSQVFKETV
Assay: Antagonist screen, hTLR7-NFκB-293 cells, NF-κB-luciferase reporter, with EC50 of R848
Format: cell-based
Conditions: compound at 0.5, 5, 50 μg/ml; EC50 concentration of R848; 16 h; NF-κB-luciferase
Experimental: The method is described in greater detail as follows. The cells for each individual cell clone (hTLR3-NFκB-293, hTLR7-NFκB-293, hTLR8-NFκB-293 and hTLR9-NFκB-293) were counted and seeded one day before the stimulation at 1.5×10^4 cells per well in 96-well cell culture plates. To become adherent the cells were incubated after seeding overnight at 37° C. in 5% CO2 humidified air.
The screen for each compound was performed at the same time for all of the receptors TLR3, TLR7, TLR8 and TLR9. Up to fifteen test compounds, each assayed in duplicate at each of three different final concentrations (0.5 μg/ml, 5 μg/ml, and 50 μg/ml), were used for 16 h cell stimulation on a single multiwell culture plate. A 4× final concentration master plate was created to prepare the different test compounds before they were added to the cells.
Controls were added as duplicates individually for each cell clone on the cell culture plate. Positive controls were used as follows (final concentrations): 50 μg/ml poly(I:C) for hTLR3-NFκB-293; 8 μM resiquimod (R848) for hTLR7-NFκB-293; 30 μM R848 for hTLR8-NFκB-293; and 2.5 μM CpG-ODN 2006 for hTLR9-NFκB-293. Media alone was used as negative control. After addition of controls and small molecules, the cell clones were additionally stimulated with the EC50 concentration of the appropriate receptor-specific ligand.
The mean value of wells H2 and H5 (each with cells and EC50 concentration of the appropriate receptor-specific ligand) divided by the mean of wells H3 and H6 (each with cells alone) yielded the baseline response (i.e., fold induction of luciferase activity) to EC50 concentration of the appropriate receptor-specific ligand.
After 16 h stimulation the supernatant was removed and the cells treated with lysis buffer and stored at −80° C. before measuring.
For each screen result a graphical documentation was performed.
The baseline result (measured with addition of the EC50 concentration of the receptor-specific ligand) for each cell culture plate was measured as described above. Antagonistic effects were measured by down regulation compared to the baseline. Antagonists were scored as follows: • 13: compounds for which there was clear down regulation at 0.5 μg/ml, 5 μg/ml, and 50 μg/ml; • 12: compounds for which there was clear down regulation at 5 μg/ml and 50 μg/ml; • 11: compounds for which there was clear down regulation only at 50 μg/ml; • —: compounds for which there was no clear down regulation even at 50 μg/ml. Agonists
Results were expressed as fold induction over baseline luciferase activity measured in the absence of R848. […] Additional screening was performed in like manner using additional small molecules selected from another library or specifically prepared for this purpose. Scoring is reported as above but as applied to TLR7.

| Compound | hTLR7 (inhibitory effect, antagonist score) |
| --- | --- |
| Cc1cc(OC(=O)C2C3CCCCC32)c(C(C)C)cc1C1(c2cc(C(C)C)c(OC(=O)C3C4CCCCC43)cc2C)OC(=O)c2ccccc21 (centres unmarked) [compound 974] | 11 (compounds for which there was clear down regulation only at 50 μg/ml) |
| CCN(CC)CCCN(CC(=O)C1c2ccc(Cl)cc2NC(=O)c2ccccc21)C(=O)c1ccccc1 (centres unmarked) [compound 1013] | — (compounds for which there was no clear down regulation even at 50 μg/ml) |
| O=C1c2ccccc2C(=O)c2c1ccc1c(=O)n(C3CCCCC3)[nH]c21 [compound 1015] | — (compounds for which there was no clear down regulation even at 50 μg/ml) |
| CCOC(=O)c1cc([N+](=O)[O-])cc2c1-c1ccc([N+](=O)[O-])cc1C2=C(C#N)C#N [compound 1039] | 11 (compounds for which there was clear down regulation only at 50 μg/ml) |
| O=C1c2ccccc2C(=O)c2c1ccc1c(=O)n(-c3ccccc3)[nH]c21 [compound 1042] | 12 (compounds for which there was clear down regulation at 5 μg/ml and 50 μg/ml) |
| O=C(c1cccc2c1-c1ccccc1/C2=N\O)N1CCCCC1 [compound 1050] | 12 (compounds for which there was clear down regulation at 5 μg/ml and 50 μg/ml) |
| NC(=O)c1cccc2c1-c1ccccc1C2 [compound 1132] | 11 (compounds for which there was clear down regulation only at 50 μg/ml) |
| NC(=O)c1cc(N)c2c(c1N)C(=O)c1ccccc1C2=O [compound 1158] | — (compounds for which there was no clear down regulation even at 50 μg/ml) |
| CC(=O)Oc1cc(C)c(C2(c3cc(C(C)C)c(OC(C)=O)cc3C)OC(=O)c3ccccc32)cc1C(C)C [compound 1161] | 12 (compounds for which there was clear down regulation at 5 μg/ml and 50 μg/ml) |
| COC(=O)c1cccc(C(O)(c2ccccc2)c2ccccc2)c1S(=O)(=O)C(C)(C)C [compound 1187] | 12 (compounds for which there was clear down regulation at 5 μg/ml and 50 μg/ml) |
| CCOCCOC(=O)c1cc([N+](=O)[O-])cc2c1-c1c(cc([N+](=O)[O-])cc1[N+](=O)[O-])C2=C(C#N)C#N [compound 1241] | — (compounds for which there was no clear down regulation even at 50 μg/ml) |
| CC1CCN(C(=O)c2cccc3c2-c2ccccc2C3=O)CC1 [compound 1243] | 11 (compounds for which there was clear down regulation only at 50 μg/ml) |
| Cc1cccc(C2(c3cccc(C)c3)OC(=O)c3ccccc32)c1 [compound 1308] | 12 (compounds for which there was clear down regulation at 5 μg/ml and 50 μg/ml) |
| COCCCNC(=O)c1ccc2c(c1N)C(=O)c1ccccc1C2=O [compound 1337] | 11 (compounds for which there was clear down regulation only at 50 μg/ml) |
| O=C1Nc2ccccc2Oc2ccc([N+](=O)[O-])cc21 [compound 1352] | 13 (compounds for which there was clear down regulation at 0.5 μg/ml, 5 μg/ml, and 50 μg/ml) |
| Flunarizinehydrochloride [compound 312] | — (compounds for which there was no clear down regulation even at 50 μg/ml) |
| Maprotilinehydrochloride [compound 346] | 11 (compounds for which there was clear down regulation only at 50 μg/ml) |
| Metixene hydrochloride [compound 491] | 11 (compounds for which there was clear down regulation only at 50 μg/ml) |
| Prochlorperazinedimaleate [compound 399] | 12 (compounds for which there was clear down regulation at 5 μg/ml and 50 μg/ml) |
| Trifluoperazinedihydrochloride [compound 313] | 11 (compounds for which there was clear down regulation only at 50 μg/ml) |
